# Measurements reported in ChEMBL document CHEMBL1201862, “PubChem BioAssay data set” (2004).
#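 Exposure lasted 48 hours, with cells grown in 96-well plates and compounds tested at five concentrations. GI50: concentration for 50% inhibition of growth.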 The source made the active and inactive calls. No stated cut-off is given here; in the data, active = GI50 up to about 1.1 µM and inactive = higher.
# How the values were obtained:
# Assay in all cases: inhibition of tumour cell growth, NCI panel, 48 h
# [1] = test system: CAKI-1
# [2] = test system: HCT-15
# [3] = test system: HT-29
# [4] = test system: IGROV-1
# [5] = test system: KM12
# [6] = test system: NCI-H226
# [7] = test system: OVCAR-4
# [8] = test system: OVCAR-5
# [9] = test system: OVCAR-8
# [10] = test system: RPMI-8226
# [11] = test system: SF-295
# [12] = test system: SK-MEL-2
# [13] = test system: SK-OV-3
# [14] = test system: SN12C
# [15] = test system: SNB-19
# [16] = test system: SR
# [17] = test system: SW-620
# [18] = test system: TK-10
# [19] = test system: UACC-257
# [20] = test system: UACC-62
SMILES,GI50 [1],GI50 [2],GI50 [3],GI50 [4],GI50 [5],GI50 [6],GI50 [7],GI50 [8],GI50 [9],GI50 [10],GI50 [11],GI50 [12],GI50 [13],GI50 [14],GI50 [15],GI50 [16],GI50 [17],GI50 [18],GI50 [19],GI50 [20]
CC(C)C1C(=O)N(c2c(F)c(F)c(F)c(F)c2F)C(=S)N1CC[S+]([O-])c1ccccc1 (stereo not given),5.19 µM (inactive),16.7 µM,14 µM (inactive),16.7 µM (inactive),16.8 µM (inactive),20.4 µM (inactive),16.3 µM (inactive),17.7 µM (inactive),17.1 µM (inactive),18.8 µM (inactive),18 µM (inactive),17.5 µM (inactive),19.6 µM (inactive),15.8 µM (inactive),18.7 µM (inactive),6.22 µM (inactive),18.3 µM (inactive),26.9 µM (inactive),20.2 µM (inactive),19.7 µM (inactive)
COc1c(/C=C/C=O)cc2c(c1OC)OCO2,5.21 µM (inactive),15.3 µM,24.2 µM (inactive),22.8 µM (inactive),12 µM (inactive),2.96 µM (inactive),16.6 µM (inactive),7.41 µM (inactive),33.6 µM (inactive),14.3 µM (inactive),21.2 µM (inactive),23.4 µM (inactive),60.8 µM (inactive),24.2 µM (inactive),16.4 µM (inactive),12.9 µM (inactive),51.2 µM (inactive),40.4 µM (inactive),48.1 µM (inactive),19.3 µM (inactive)
Nc1nc(Cl)c(N)c(NC23CC4CC(CC(C4)C2)C3)n1,1.93 µM (inactive),1.73 µM,1.79 µM (inactive),3.85 µM (inactive),1.73 µM (inactive),1.92 µM (inactive),1.85 µM (inactive),1.4 µM (inactive),2.55 µM (inactive),2.25 µM (inactive),2.78 µM (inactive),0.147 µM (active),4.32 µM (inactive),1.82 µM (inactive),1.63 µM (inactive),2.56 µM (inactive),1.51 µM (inactive),2.38 µM (inactive),2.36 µM (inactive),1.63 µM (inactive)
Nc1ncn([C@H]2C[C@H](O)[C@@H](CO)O2)c(=O)n1 [DECITABINE],219 µM (inactive),2.77 µM,51.3 µM (inactive),102 µM (inactive),72.6 µM (inactive),68.7 µM (inactive),104 µM (inactive),106 µM (inactive),16.9 µM (inactive),54.7 µM (inactive),102 µM (inactive),38.1 µM (inactive),76.2 µM (inactive),83.8 µM (inactive),138 µM (inactive),2.67 µM (inactive),29 µM (inactive),46.8 µM (inactive),34.9 µM (inactive),83.8 µM (inactive)
Cc1cc(NS(=O)(=O)c2ccc(Nc3c4ccccc4nc4ccc(C(=O)Nc5ccc(S(N)(=O)=O)cc5)cc34)cc2)no1,> 100 µM (inactive),> 100 µM,> 100 µM (inactive),> 100 µM (inactive),69 µM (inactive),> 100 µM (inactive),> 100 µM (inactive),> 100 µM (inactive),> 100 µM (inactive),> 100 µM (inactive),> 100 µM (inactive),> 100 µM (inactive),> 100 µM (inactive),> 100 µM (inactive),> 100 µM (inactive),> 100 µM (inactive),> 100 µM (inactive),> 100 µM (inactive),> 100 µM (inactive),> 100 µM (inactive)
CC/C(SC)=[N+](\C)[O-],> 100 µM (inactive),57.9 µM,> 100 µM (inactive),> 100 µM (inactive),> 100 µM (inactive),> 100 µM (inactive),> 100 µM (inactive),> 100 µM (inactive),> 100 µM (inactive),> 93.1 µM (inactive),> 100 µM (inactive),> 100 µM (inactive),> 100 µM (inactive),> 100 µM (inactive),> 100 µM (inactive),25.8 µM (inactive),> 100 µM (inactive),> 100 µM (inactive),> 100 µM (inactive),> 100 µM (inactive)
COc1c2c(nc3ccccc13)-c1cc(C(CC(=O)OC(C)(C)C)C(=O)OC(C)C)c(CO)c(=O)n1C2 (stereo not given),4.22 µM (inactive),> 78.2 µM,58.5 µM (inactive),47.4 µM (inactive),> 100 µM (inactive),67.8 µM (inactive),> 70.5 µM (inactive),98.6 µM (inactive),71.1 µM (inactive),21.3 µM (inactive),29.2 µM (inactive),> 100 µM (inactive),> 40.2 µM (inactive),45.8 µM (inactive),53.8 µM (inactive),5.62 µM (inactive),> 96.6 µM (inactive),> 100 µM (inactive),> 100 µM (inactive),17.8 µM (inactive)
O=C(CCc1nnc2s/c(=C\c3ccccc3Cl)c(=O)n12)Nc1cc(Cl)ccc1Cl,> 100 µM (inactive),> 100 µM,> 100 µM (inactive),> 100 µM (inactive),> 100 µM (inactive),> 100 µM (inactive),> 100 µM (inactive),> 100 µM (inactive),> 100 µM (inactive),> 100 µM (inactive),> 100 µM (inactive),> 100 µM (inactive),> 100 µM (inactive),> 100 µM (inactive),> 100 µM (inactive),> 100 µM (inactive),> 100 µM (inactive),> 100 µM (inactive),> 100 µM (inactive),> 100 µM (inactive)
O=c1[nH]c(=O)n([C@H]2CCCO2)cc1F,828 µM (inactive),678 µM,649 µM (inactive),975 µM (inactive),813 µM (inactive),625 µM (inactive),2610 µM (inactive),953 µM (inactive),655 µM (inactive),385 µM (inactive),918 µM (inactive),719 µM (inactive),681 µM (inactive),838 µM (inactive),3920 µM (inactive),337 µM (inactive),887 µM (inactive),764 µM (inactive),951 µM (inactive),569 µM (inactive)
O=C(/C=C/c1ccc(-c2ccccc2)cc1)NCc1ccc(C(=O)NCCc2c[nH]c3ccccc23)cc1,16.3 µM (inactive),> 100 µM,11.5 µM (inactive),11.4 µM (inactive),31 µM (inactive),24.4 µM (inactive),14.8 µM (inactive),11.5 µM (inactive),13.6 µM (inactive),60.8 µM (inactive),11.1 µM (inactive),33.5 µM (inactive),14.5 µM (inactive),5.08 µM (inactive),21.7 µM (inactive),21 µM (inactive),34 µM (inactive),26.2 µM (inactive),67.3 µM (inactive),29 µM (inactive)
CC1=C(O)C(=O)c2cn(C)cc2C1=O,> 100 µM (inactive),> 100 µM,> 100 µM (inactive),> 100 µM (inactive),> 100 µM (inactive),> 100 µM (inactive),> 100 µM (inactive),> 100 µM (inactive),> 100 µM (inactive),> 100 µM (inactive),> 100 µM (inactive),> 100 µM (inactive),> 100 µM (inactive),> 100 µM (inactive),> 100 µM (inactive),> 100 µM (inactive),> 100 µM (inactive),> 100 µM (inactive),> 100 µM (inactive),> 100 µM (inactive)
O=C1C2C3C=CC(C2C(=O)N1CO)C1C2C(=O)N(CO)C(=O)C2C31 (stereo not given),> 100 µM (inactive),37 µM,92.5 µM (inactive),> 100 µM (inactive),> 74.3 µM (inactive),> 100 µM (inactive),> 45.8 µM (inactive),> 100 µM (inactive),36.4 µM (inactive),21.8 µM (inactive),> 100 µM (inactive),> 100 µM (inactive),> 100 µM (inactive),> 69.8 µM (inactive),> 100 µM (inactive),22.5 µM (inactive),33.5 µM (inactive),> 100 µM (inactive),> 100 µM (inactive),> 100 µM (inactive)
COc1cc(OCCN(C)C)c2[nH]c(C(=O)N3CC(CCl)c4ccc(N)cc43)cc2c1 (stereo not given),0.022 µM (active),0.0418 µM,< 0.0246 µM (active),0.0148 µM (active),0.0324 µM (active),0.0865 µM (active),0.029 µM (active),0.0656 µM (active),0.0432 µM (active),0.0358 µM (active),0.0369 µM (active),0.0381 µM (active),1.04 µM (active),0.0597 µM (active),0.114 µM (active),< 0.01 µM (active),0.0441 µM (active),0.0973 µM (active),0.0546 µM (active),0.0404 µM (active)
N#Cc1c(C#N)c(-c2ccccc2)n(Cc2ccccc2)c1N,> 100 µM (inactive),> 100 µM,> 100 µM (inactive),> 100 µM (inactive),> 100 µM (inactive),> 100 µM (inactive),> 100 µM (inactive),> 100 µM (inactive),28.4 µM (inactive),> 100 µM (inactive),> 100 µM (inactive),> 100 µM (inactive),> 100 µM (inactive),> 100 µM (inactive),29.6 µM (inactive),> 100 µM (inactive),> 100 µM (inactive),> 100 µM (inactive),> 100 µM (inactive),> 100 µM (inactive)
